Assay results as given in patent publication US8119633B2, “Substituted sulfonamide compounds” (Gruenenthal GmbH, priority 2007, dated 2012).

Assays:
[1] = target: T1, human bradykinin receptor 1 (B1R) (Homo sapiens, UniProt P46663); test: Functional study on the bradykinin receptor 1 (B1R), human: FLIPR Ca2+ influx assay; assay type: cell-based; conditions: test substance 10 μM; CHO K1 cells transfected with human B1R; Lys-Des-Arg9-bradykinin at EC80; Ca2+ influx (Fluo-4, FLIPR); read-out: B1R antagonism, human [10 μM] % inhibition
T1 construct: expressed in transfected cells; host or cells: CHO K1 cells
T1 sequence (P46663 1-353): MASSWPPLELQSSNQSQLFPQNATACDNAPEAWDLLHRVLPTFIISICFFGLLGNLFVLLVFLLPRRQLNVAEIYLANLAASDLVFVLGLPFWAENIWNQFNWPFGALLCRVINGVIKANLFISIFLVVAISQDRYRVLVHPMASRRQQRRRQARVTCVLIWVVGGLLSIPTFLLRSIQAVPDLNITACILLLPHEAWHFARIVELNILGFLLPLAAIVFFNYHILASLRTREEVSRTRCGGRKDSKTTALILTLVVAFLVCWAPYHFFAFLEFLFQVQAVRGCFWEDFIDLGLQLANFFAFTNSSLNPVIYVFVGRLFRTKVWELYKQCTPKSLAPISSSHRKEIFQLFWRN
In short: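 CHO K1 cells stably expressing human B1R were loaded with Fluo-4, and Ca2+ fluorescence was read on FLIPR (ex 488/em 540 nm). Compound was added first (10 μM for % activation against Lys-Des-Arg9-bradykinin ≥0.5 nM). After 10-20 min, Lys-Des-Arg9-bradykinin was added at EC80 for % inhibition; IC50 came from concentration series, n=2-3, N≥2.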

[2] = target: T2, bradykinin receptor 1 (B1R) of the rat (Rattus norvegicus, UniProt P97583); test: Functional study on the bradykinin receptor 1 (B1R), rat: FLIPR Ca2+ influx assay; assay type: cell-based; conditions: test substance 10 μM; CHO K1 cells transfected with rat B1R; Des-Arg9-bradykinin at EC80; Ca2+ influx (Fluo-4, FLIPR); read-out: B1R antagonism, rat [10 μM] % inhibition
T2 construct: expressed in transfected cells; host or cells: CHO K1 cells
T2 sequence (P97583 1-337): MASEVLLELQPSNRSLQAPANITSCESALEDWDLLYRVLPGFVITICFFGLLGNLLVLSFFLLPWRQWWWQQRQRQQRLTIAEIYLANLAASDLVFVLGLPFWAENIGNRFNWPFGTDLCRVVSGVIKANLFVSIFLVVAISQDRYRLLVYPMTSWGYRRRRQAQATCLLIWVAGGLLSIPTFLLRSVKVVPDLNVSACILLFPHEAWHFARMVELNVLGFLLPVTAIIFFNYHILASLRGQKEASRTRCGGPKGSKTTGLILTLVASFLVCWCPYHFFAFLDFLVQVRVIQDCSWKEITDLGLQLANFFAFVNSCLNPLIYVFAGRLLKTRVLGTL
In short: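 CHO K1 cells stably expressing rat B1R, Fluo-4-loaded, read on FLIPR (ex 488/em 540 nm, peak fluorescence). Test substances added first (agonism vs 10 μM Des-Arg9-bradykinin), then after 10-20 min Des-Arg9-bradykinin at EC80; % inhibition and IC50 from concentration series, n=2-3, N≥2.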

human μ-opiate receptor = target: T3, human μ-opiate receptor (Homo sapiens, UniProt P35372); test: Affinity for the human μ-opiate receptor ([3H]-naloxone displacement, SPA); conditions: test substance 1 μmol/l; inhibition of specific [3H]-naloxone binding; CHO-K1 receptor membrane preparation; read-out: μ-Opioid receptor [1 μM] % inhibition
T3 construct: purchased PerkinElmer Life Sciences, Zaventem, Belgium RB-HOM; host or cells: CHO-K1 cells (membrane preparation)
T3 sequence (P35372 whole entry): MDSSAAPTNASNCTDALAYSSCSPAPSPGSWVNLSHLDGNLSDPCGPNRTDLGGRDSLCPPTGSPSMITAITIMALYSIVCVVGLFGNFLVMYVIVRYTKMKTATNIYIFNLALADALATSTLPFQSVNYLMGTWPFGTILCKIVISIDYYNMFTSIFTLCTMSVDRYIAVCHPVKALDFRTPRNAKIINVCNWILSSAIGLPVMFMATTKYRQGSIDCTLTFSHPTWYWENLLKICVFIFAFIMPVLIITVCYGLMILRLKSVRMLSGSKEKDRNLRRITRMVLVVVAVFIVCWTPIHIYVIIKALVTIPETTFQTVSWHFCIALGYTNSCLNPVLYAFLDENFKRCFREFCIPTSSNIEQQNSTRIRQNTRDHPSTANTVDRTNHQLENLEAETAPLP
In short: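 Membranes from CHO-K1 cells expressing human μ-opiate receptor were incubated 90 min at room temperature with 1 nmol/l [3H]-naloxone and WGA-SPA beads in 50 mmol/l Tris-HCl with 0.06% BSA; non-specific binding was defined with 100 μmol/l naloxone. Percent inhibition was measured at 1 μmol/l, IC50 was derived from concentration series, and Ki was obtained by Cheng-Prusoff.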

| SMILES | inhibition at 10 µM [1] [%] | inhibition at 10 µM [2] [%] | inhibition at 1 µM (human μ-opiate receptor) [%] |
| --- | --- | --- | --- |
| O=C(CC1CCCCN1S(=O)(=O)c1ccc(Cl)c(Cl)c1)NCC1CCC(C(CCc2ccccc2)N2CCOCC2)CC1 (stereo not drawn) [Example 83, 2-[1-(3,4-dichloro-benzenesulfonyl)-piperidin-2-yl]-N-[4-(1-morpholin-4-yl-3-phenyl-propyl)-cyclohexylmethyl]-acetamide] | 37 | -3 | 22 |
| O=C(CC1CCCCN1S(=O)(=O)c1ccc(Cl)c(Cl)c1)NCC1CCC(C(CCc2ccccc2)N2CCCC2)CC1 (stereo not drawn) [Example 84, 2-[1-(3,4-dichloro-benzenesulfonyl)-piperidin-2-yl]-N-[4-(3-phenyl-1-pyrrolidin-1-yl-propyl)-cyclohexylmethyl]-acetamide] | 95.4 | 19 | 90 |
| O=C(CC1CCCCN1S(=O)(=O)c1ccc(Cl)c(Cl)c1)NCC1CCC(C(c2ccccc2)N2CCCC2)CC1 (stereo not drawn) [Example 85, 2-[1-(3,4-dichloro-benzenesulfonyl)-piperidin-2-yl]-N-[4-(phenyl-pyrrolidin-1-ylmethyl)-cyclohexylmethyl]-acetamide] | 92.7 | 22 | 95 |
| O=C(CC1CCCCN1S(=O)(=O)c1ccc(Cl)c(Cl)c1)NC1CCC(C(CCc2ccccc2)N2CCCCC2)CC1 (stereo not drawn) [Example 86, 2-[1-(3,4-dichloro-benzenesulfonyl)-piperidin-2-yl]-N-[4-(3-phenyl-1-piperidin-1-yl-propyl)-cyclohexyl]-acetamide] | 101 | 30 | 54 |
| O=C(CC1CCCCN1S(=O)(=O)c1ccc(Cl)c(Cl)c1)NC1CCC(C(CCc2ccccc2)N2CCOCC2)CC1 (stereo not drawn) [Example 87, 2-[1-(3,4-dichloro-benzenesulfonyl)-piperidin-2-yl]-N-[4-(1-morpholin-4-yl-3-phenyl-propyl)-cyclohexyl]-acetamide] | 96.8 | 25 | 38 |
| CN1CCN(C(c2ccccc2)C2CCC(NC(=O)CC3CCCCN3S(=O)(=O)c3ccc(Cl)c(Cl)c3)CC2)CC1 (stereo not drawn) [Example 88, 2-[1-(3,4-dichloro-benzenesulfonyl)-piperidin-2-yl]-N-{4-[(4-methyl-piperazin-1-yl)-phenyl-methyl]-cyclohexyl}-acetamide] | 101 | 61 | 58 |
| O=C(CC1CCCCN1S(=O)(=O)c1ccc(Cl)c(Cl)c1)N1CCC(C(c2ccccc2)N2CCOCC2)CC1 (stereo not drawn) [Example 89, 2-[1-(3,4-dichloro-benzenesulfonyl)-piperidin-2-yl]-1-[4-(morpholin-4-yl-phenylmethyl)-piperidin-1-yl]-ethanone] | 16.4 | 26 | 8.5 |
| O=C(CC1CCCCN1S(=O)(=O)c1ccc(Cl)c(Cl)c1)N1CCC(C(Cc2ccccc2)N2CCOCC2)CC1 (stereo not drawn) [Example 90, 2-(1-(3,4-dichlorophenylsulfonyl)piperidin-2-yl)-1-(4-(1-morpholino-2-phenylethyl)piperidin-1-yl)ethanone] | 14.4 | 17 | 12 |
| O=C(CC1C(=O)NCCN1S(=O)(=O)c1ccc(Cl)cc1Cl)NC1CCC(C(c2ccccc2)N2CCOCC2)CC1 (stereo not drawn) [Example 101, 2-(1-(2,4-dichlorophenylsulfonyl)-3-oxopiperazin-2-yl)-N-(4-(morpholino(phenyl)methyl)cyclohexyl)acetamide] | 104 | 31 | 4 |
| O=C(CC1C(=O)NCCN1S(=O)(=O)c1ccc(Cl)cc1Cl)NC1CCC(C(c2ccccc2)N2CCCC2)CC1 (stereo not drawn) [Example 102, 2-(1-(2,4-dichlorophenylsulfonyl)-3-oxopiperazin-2-yl)-N-(4-(phenyl(pyrrolidin-1-yl)methyl)cyclohexyl)acetamide] | 104 | 12 | 35 |
| O=C(CC1C(=O)Nc2ccccc2N1S(=O)(=O)c1ccc(Cl)c(Cl)c1)NC1CCC(C(c2ccccc2)N2CCCC2)CC1 (stereo not drawn) [Example 103, 2-(1-(3,4-dichlorophenylsulfonyl)-3-oxo-1,2,3,4-tetrahydroquinoxalin-2-yl)-N-(4-(phenyl(pyrrolidin-1-yl)methyl)cyclohexyl)acetamide] | 103 | 37 | 71 |
| O=C(CC1CCCN1S(=O)(=O)c1ccc(Cl)c(Cl)c1)NC1CCC(C(c2ccccc2)N2CCOCC2)CC1 (stereo not drawn) [Example 104, 2-(1-(3,4-dichlorophenylsulfonyl)pyrrolidin-2-yl)-N-(4-(morpholino(phenyl)methyl)cyclohexyl)acetamide] | 32.8 | 13 | 11 |
| O=C(CC1CCCN1S(=O)(=O)c1ccc(Cl)c(Cl)c1)NC1CCC(C(c2ccccc2)N2CCCC2)CC1 (stereo not drawn) [Example 105, 2-(1-(3,4-dichlorophenylsulfonyl)pyrrolidin-2-yl)-N-(4-(phenyl(pyrrolidin-1-yl)methyl)cyclohexyl)acetamide] | 99.5 | 24 | 76 |
| O=C(CC1CCCCN1S(=O)(=O)c1ccc(Cl)c(Cl)c1)NC1CCC(C(c2ccccc2)N2CCOCC2)CC1 (stereo not drawn) [Example 106, 2-(1-(3,4-dichlorophenylsulfonyl)piperidin-2-yl)-N-(4-(morpholino(phenyl)methyl)cyclohexyl)acetamide] | 48.3 | 19 | 21 |
| O=C(CC1CCCCN1S(=O)(=O)c1ccc(Cl)c(Cl)c1)NC1CCC(C(c2ccccc2)N2CCCC2)CC1 (stereo not drawn) [Example 107, 2-(1-(3,4-dichlorophenylsulfonyl)piperidin-2-yl)-N-(4-(phenyl(pyrrolidin-1-yl)methyl)cyclohexyl)acetamide] | 102 | 26 | 78 |
| CN1CCN(C(c2ccccc2)C2CCN(C(=O)CC3CCCCN3S(=O)(=O)c3cccc(C(F)(F)F)c3)CC2)CC1 (stereo not drawn) [Example 108, 1-(4-((4-methylpiperazin-1-yl)(phenyl)methyl)piperidin-1-yl)-2-(1-(3-(trifluoromethyl)phenylsulfonyl)piperidin-2-yl)ethanone] | 97 | 78 | 6 |
| CN1CCN(C(c2ccc(F)cc2)C2CCN(C(=O)CC3CCCCN3S(=O)(=O)c3cccc(C(F)(F)F)c3)CC2)CC1 (stereo not drawn) [Example 109, 1-(4-((4-fluorophenyl)(4-methylpiperazin-1-yl)methyl)piperidin-1-yl)-2-(1-(3-(trifluoromethyl)phenylsulfonyl)piperidin-2-yl)ethanone] | 102 | 99 | 5 |
| CN1CCN(C(c2cccc(F)c2)C2CCN(C(=O)CC(NS(=O)(=O)c3ccc4ccccc4c3)c3ccccc3)CC2)CC1 (stereo not drawn) [Example 110, N-(3-(4-((3-fluorophenyl)(4-methylpiperazin-1-yl)methyl)piperidin-1-yl)-3-oxo-1-phenylpropyl)naphthalene-2-sulfonamide] | 102 | 100 | 3 |
| CN1CCN(C(Cc2ccccc2)C2CCN(C(=O)CC3CCCCN3S(=O)(=O)c3cccc(C(F)(F)F)c3)CC2)CC1 (stereo not drawn) [Example 111, 1-(4-(1-(4-methylpiperazin-1-yl)-2-phenylethyl)piperidin-1-yl)-2-(1-(3-(trifluoromethyl)phenylsulfonyl)piperidin-2-yl)ethanone] | 94 | 61 | -2 |
